Measured values: BindingDB's records for doi:10.1021/jm960441m (Upjohn, 1997)

Assays:
[1] = molecular target: T1, Dimer of Gag-Pol polyprotein [489-587] (Human immunodeficiency virus 1, UniProt P04585); test: Protease Inhibition Assay; conditions: pH 5; 22 °C
T1 construct: 489-587
Text: (§1) HIV-1 protease was purified and refolded from E. coli inclusion bodies. […] In the presence of HIV-l protease, the substrate is rapidly cleaved into two parts. The biotinylated amino terminal fragment binds to the avidin beads while the FITC-containing carboxy1 terminal fragment is removed through the membrane. […] The bound fluorescence is obtained by processing on an IDEXX Screen Machine. Determination of Ki values with this assay requires analysis under conditions in which substrate concentration resides substantially below Km and the inhibitor concentrations greatly exceeds the Ki value and the enzyme concentration.

[2] = molecular target: T2, Dimer of Gag-Pol polyprotein [489-587] (Human immunodeficiency virus 1, UniProt P12497); test: Protease Inhibition Assay
T2 construct: 489-587
Text: as §1

SMILES | Ki [2] [nM] | also measured
N#Cc1cccc(S(=O)(=O)Nc2cccc(C(c3c(O)c4c(oc3=O)CCCCCC4)C3CC3)c2)c1 (stereo unspecified) [3-cyano-N-{3-[cyclopropyl({4-hydroxy-2-oxo-2H,5H,6H,7H,8H,9H,10H-cycloocta[b]pyran-3-yl})methyl]phenyl}benzene-1-sulfonamide] |  | Ki [1]: 0.6 nM
O=c1oc2c(c(O)c1C(c1cccc(NS(=O)(=O)c3ccc(Br)cc3)c1)C1CC1)CCCCCC2 (stereo unspecified) [4-bromo-N-{3-[cyclopropyl({4-hydroxy-2-oxo-2H,5H,6H,7H,8H,9H,10H-cycloocta[b]pyran-3-yl})methyl]phenyl}benzene-1-sulfonamide] | 2.1 | 
O=c1oc2c(c(O)c1C(c1cccc(NS(=O)(=O)c3ccc(Cl)cc3)c1)C1CC1)CCCCCC2 (stereo unspecified) [4-chloro-N-{3-[cyclopropyl({4-hydroxy-2-oxo-2H,5H,6H,7H,8H,9H,10H-cycloocta[b]pyran-3-yl})methyl]phenyl}benzene-1-sulfonamide] | 2.5 | 
N#Cc1ccc(S(=O)(=O)Nc2cccc(C(c3c(O)c4c(oc3=O)CCCCCC4)C3CC3)c2)nc1 (stereo unspecified) [5-cyano-N-{3-[cyclopropyl({4-hydroxy-2-oxo-2H,5H,6H,7H,8H,9H,10H-cycloocta[b]pyran-3-yl})methyl]phenyl}pyridine-2-sulfonamide] | 1 | 
O=c1oc2c(c(O)c1C(c1cccc(NS(=O)(=O)/C=C/c3ccccc3)c1)C1CC1)CCCCCC2 (stereo unspecified) [(E)-N-{3-[cyclopropyl({4-hydroxy-2-oxo-2H,5H,6H,7H,8H,9H,10H-cycloocta[b]pyran-3-yl})methyl]phenyl}-2-phenylethene-1-sulfonamide] |  | Ki ([2]; pH 5, 22 °C): 3 nM
O=c1oc2c(c(O)c1C(c1cccc(NS(=O)(=O)c3cccc4cccnc34)c1)C1CC1)CCCCCC2 (stereo unspecified) [N-[3-[Cyclopropyl(5,6,7,8,9,10-hexahydro-4-hydroxy-2-oxo-2H-cycloocta[b]pyran-3-yl)methyl]phenyl]-8-quinolinesulfonamide] | 1.9 | 
O=c1oc2c(c(O)c1C(c1cccc(NS(=O)(=O)Cc3ccccc3)c1)C1CC1)CCCCCC2 (stereo unspecified) [N-[3-[Cyclopropyl(5,6,7,8,9,10-hexahydro-4-hydroxy-2-oxo-2H-cycloocta[b]pyran-3-yl)methyl]phenyl]benzenemethanesulfonamide] |  | Ki ([2]; pH 5, 22 °C): 13 nM
O=c1oc2c(c(O)c1C(c1cccc(NS(=O)(=O)c3cscn3)c1)C1CC1)CCCCCC2 (stereo unspecified) [N-{3-[cyclopropyl({4-hydroxy-2-oxo-2H,5H,6H,7H,8H,9H,10H-cycloocta[b]pyran-3-yl})methyl]phenyl}-1,3-thiazole-4-sulfonamide] | 1.6 | 
O=c1oc2c(c(O)c1C(c1cccc(NS(=O)(=O)c3ccc(F)cc3F)c1)C1CC1)CCCCCC2 (stereo unspecified) [N-{3-[cyclopropyl({4-hydroxy-2-oxo-2H,5H,6H,7H,8H,9H,10H-cycloocta[b]pyran-3-yl})methyl]phenyl}-2,4-difluorobenzene-1-sulfonamide] | 4.1 | 
Cc1cccc(C)c1S(=O)(=O)Nc1cccc(C(c2c(O)c3c(oc2=O)CCCCCC3)C2CC2)c1 (stereo unspecified) [N-{3-[cyclopropyl({4-hydroxy-2-oxo-2H,5H,6H,7H,8H,9H,10H-cycloocta[b]pyran-3-yl})methyl]phenyl}-2,6-dimethylbenzene-1-sulfonamide] | > 200 | 
O=c1oc2c(c(O)c1C(c1cccc(NS(=O)(=O)c3ccccc3C(F)(F)F)c1)C1CC1)CCCCCC2 (stereo unspecified) [N-{3-[cyclopropyl({4-hydroxy-2-oxo-2H,5H,6H,7H,8H,9H,10H-cycloocta[b]pyran-3-yl})methyl]phenyl}-2-(trifluoromethyl)benzene-1-sulfonamide] |  | Ki ([2]; pH 5, 22 °C): 21 nM
O=c1oc2c(c(O)c1C(c1cccc(NS(=O)(=O)c3ccccc3F)c1)C1CC1)CCCCCC2 (stereo unspecified) [N-{3-[cyclopropyl({4-hydroxy-2-oxo-2H,5H,6H,7H,8H,9H,10H-cycloocta[b]pyran-3-yl})methyl]phenyl}-2-fluorobenzene-1-sulfonamide] |  | Ki ([2]; pH 5, 22 °C): 11 nM
O=c1oc2c(c(O)c1C(c1cccc(NS(=O)(=O)CCc3ccccc3)c1)C1CC1)CCCCCC2 (stereo unspecified) [N-{3-[cyclopropyl({4-hydroxy-2-oxo-2H,5H,6H,7H,8H,9H,10H-cycloocta[b]pyran-3-yl})methyl]phenyl}-2-phenylethane-1-sulfonamide] |  | Ki ([2]; pH 5, 22 °C): 3.9 nM
O=c1oc2c(c(O)c1C(c1cccc(NS(=O)(=O)c3ccc(C(F)(F)F)c(C(F)(F)F)c3)c1)C1CC1)CCCCCC2 (stereo unspecified) [N-{3-[cyclopropyl({4-hydroxy-2-oxo-2H,5H,6H,7H,8H,9H,10H-cycloocta[b]pyran-3-yl})methyl]phenyl}-3,4-bis(trifluoromethyl)benzene-1-sulfonamide] | 47 | 
O=c1oc2c(c(O)c1C(c1cccc(NS(=O)(=O)c3cccc(C(F)(F)F)c3)c1)C1CC1)CCCCCC2 (stereo unspecified) [N-{3-[cyclopropyl({4-hydroxy-2-oxo-2H,5H,6H,7H,8H,9H,10H-cycloocta[b]pyran-3-yl})methyl]phenyl}-3-(trifluoromethyl)benzene-1-sulfonamide] |  | Ki ([2]; pH 5, 22 °C): 3 nM
O=c1oc2c(c(O)c1C(c1cccc(NS(=O)(=O)c3cccc([N+](=O)[O-])c3)c1)C1CC1)CCCCCC2 (stereo unspecified) [N-{3-[cyclopropyl({4-hydroxy-2-oxo-2H,5H,6H,7H,8H,9H,10H-cycloocta[b]pyran-3-yl})methyl]phenyl}-3-nitrobenzene-1-sulfonamide] |  | Ki ([2]; pH 5, 22 °C): 4.7 nM
O=c1oc2c(c(O)c1C(c1cccc(NS(=O)(=O)c3ccc(OC(F)(F)F)cc3)c1)C1CC1)CCCCCC2 (stereo unspecified) [N-{3-[cyclopropyl({4-hydroxy-2-oxo-2H,5H,6H,7H,8H,9H,10H-cycloocta[b]pyran-3-yl})methyl]phenyl}-4-(trifluoromethoxy)benzene-1-sulfonamide] | 4 | 
O=c1oc2c(c(O)c1C(c1cccc(NS(=O)(=O)c3ccc(C(F)(F)F)cc3)c1)C1CC1)CCCCCC2 (stereo unspecified) [N-{3-[cyclopropyl({4-hydroxy-2-oxo-2H,5H,6H,7H,8H,9H,10H-cycloocta[b]pyran-3-yl})methyl]phenyl}-4-(trifluoromethyl)benzene-1-sulfonamide] | 6.2 | 
O=c1oc2c(c(O)c1C(c1cccc(NS(=O)(=O)c3ccc(I)cc3)c1)C1CC1)CCCCCC2 (stereo unspecified) [N-{3-[cyclopropyl({4-hydroxy-2-oxo-2H,5H,6H,7H,8H,9H,10H-cycloocta[b]pyran-3-yl})methyl]phenyl}-4-iodobenzene-1-sulfonamide] | 3.1 | 
O=c1oc2c(c(O)c1C(c1cccc(NS(=O)(=O)c3ccc([N+](=O)[O-])cc3)c1)C1CC1)CCCCCC2 (stereo unspecified) [N-{3-[cyclopropyl({4-hydroxy-2-oxo-2H,5H,6H,7H,8H,9H,10H-cycloocta[b]pyran-3-yl})methyl]phenyl}-4-nitrobenzene-1-sulfonamide] | 2.7 | 
O=c1oc2c(c(O)c1C(c1cccc(NS(=O)(=O)c3cccc4ccccc34)c1)C1CC1)CCCCCC2 (stereo unspecified) [N-{3-[cyclopropyl({4-hydroxy-2-oxo-2H,5H,6H,7H,8H,9H,10H-cycloocta[b]pyran-3-yl})methyl]phenyl}naphthalene-1-sulfonamide] | 5.5 | 
O=c1oc2c(c(O)c1C(c1cccc(NS(=O)(=O)c3ccc4ccccc4c3)c1)C1CC1)CCCCCC2 (stereo unspecified) [N-{3-[cyclopropyl({4-hydroxy-2-oxo-2H,5H,6H,7H,8H,9H,10H-cycloocta[b]pyran-3-yl})methyl]phenyl}naphthalene-2-sulfonamide] | 4.1 | 
O=c1oc2c(c(O)c1C(c1cccc(NS(=O)(=O)c3cnccn3)c1)C1CC1)CCCCCC2 (stereo unspecified) [N-{3-[cyclopropyl({4-hydroxy-2-oxo-2H,5H,6H,7H,8H,9H,10H-cycloocta[b]pyran-3-yl})methyl]phenyl}pyrazine-2-sulfonamide] | 0.2 | 
O=c1oc2c(c(O)c1C(c1cccc(NS(=O)(=O)c3ncccn3)c1)C1CC1)CCCCCC2 (stereo unspecified) [N-{3-[cyclopropyl({4-hydroxy-2-oxo-2H,5H,6H,7H,8H,9H,10H-cycloocta[b]pyran-3-yl})methyl]phenyl}pyrimidine-2-sulfonamide] | 0.8 | 
O=c1oc2c(c(O)c1C(c1cccc(NS(=O)(=O)c3ccc4ccccc4n3)c1)C1CC1)CCCCCC2 (stereo unspecified) [N-{3-[cyclopropyl({4-hydroxy-2-oxo-2H,5H,6H,7H,8H,9H,10H-cycloocta[b]pyran-3-yl})methyl]phenyl}quinoline-2-sulfonamide] | 0.4 | 
O=c1oc2c(c(O)c1C(c1cccc(NS(=O)(=O)c3cccs3)c1)C1CC1)CCCCCC2 (stereo unspecified) [N-{3-[cyclopropyl({4-hydroxy-2-oxo-2H,5H,6H,7H,8H,9H,10H-cycloocta[b]pyran-3-yl})methyl]phenyl}thiophene-2-sulfonamide] | 6.3 | 
